Source: patent US4563306A, “Peptides and process for preparing the same” (Tanabe Seiyaku Co., Ltd., priority 1983, dated 1986)

How the values were obtained:
Format in all cases: in vivo
Serum TSH levels = test: TSH-releasing activity (serum TSH by double-antibody radioimmunoassay after i.v. administration); conditions: male JCL: SD rats, intravenous, serum TSH 15 minutes after administration; parallel line assay, TRH = 1
Method: (1) TSH-releasing activity:
A test compound dissolved in a 0.1% BSA (bovine serum albumin)-containing physiological saline was intravenously administered to a group of five male JCL: SD rats. Fifteen minutes after the administration, blood was taken from the abdominal aorta under anesthesia. Serum TSH levels were determined by the double-antibody radioimmunoassay method (Midgley et al., Endocrinology., 79, 10 (1966)). The BSA-containing physiological saline was used for control instead of the test compound solution.

male STD/ddy mice [1] = test: Antagonistic effect on pentobarbital anesthesia; conditions: pentobarbital sodium 55 mg/kg i.p., test compound intravenous 10 minutes later, duration of anesthesia, parallel line assay, TRH = 1
Method: (2) Antagonistic effect on pentobarbital anesthesia:
Pentobarbital sodium was intraperitoneally administered to a group of ten male STD/ddy mice at a dose of 55 mg/kg. Ten minutes after the administration of pentobarbital sodium, a test compound dissolved in physiological saline was intravenously administered to the mice which had lost the righting reflex. The duration of anesthesia was measured as the time from the end of administration of the test compound until the righting reflex regained. Physiological saline was used for control instead of the test compound solution (Prange et al., Life Science, 14, 447-455, (1974)).

male STD/ddy mice [2] = test: Increasing effect on spontaneous locomotor activity (Ambulometer); conditions: intraperitoneal, activity measured for 60 minutes, parallel line assay, TRH = 1
Method: (3) Increasing effect on spontaneous locomotor activity:
A group of five male STD/ddY mice were individually placed in Ambulometer (i.e., an apparatus for measuring spontaneous locomotor activity; manufactured by OHARA IKA Co.) for 30 minutes to acclimatize to the apparatus. Thereafter, a test compound dissolved in physiological saline was intraperitoneally administered to the mice and, immediately after administration of the test compound, the spontaneous locomotor activity was measured for 60 minutes. Physiological saline was used for control instead of the test compound solution.

male STD/ddy mice [3] = test: Antagonistic effect on reserpine-induced hypothermia; conditions: intraperitoneal, rectal temperature 30, 60, 120 and 180 minutes after administration, parallel line assay, TRH = 1
Method: (4) Antagonistic effect on reserpine-induced hypothermia:
A test compound dissolved in physiological saline was intraperitoneally administered to a group of five male STD/ddy mice, and the rectal temperature was measured 30, 60, 120 and 180 minutes after the administration of the test compound. The increase in temperature in the treated group was compared to that in the control group which received physiological saline instead of the test compound solution.

male STD/ddy mice [4] = test: Potentiating effect on methamphetamine-induced hyperlocomotion; conditions: methamphetamine 0.2 mg/kg and test compound intraperitoneally at the same time, locomotor activity for 60 minutes, parallel line assay, TRH = 1
Method: (5) Potentiating effect on methamphetamine-induced hyperlocomotion:
A group of ten male STD/ddY mice were individually placed in Ambulometer for 30 minutes to acclimatize to the apparatus.

Row | Structure (SMILES) | TSH-releasing activity, potency ratio relative to TRH (Serum TSH levels) | Antagonistic effect on pentobarbital anesthesia, potency ratio relative to TRH (male STD/ddy mice [1]) | Increasing effect on spontaneous locomotor activity, potency ratio relative to TRH (male STD/ddy mice [2]) | Antagonistic effect on reserpine-induced hypothermia, potency ratio relative to TRH (male STD/ddy mice [3]) | Potentiating effect on action of methamphetamine, potency ratio relative to TRH (male STD/ddy mice [4])
1 | NC(=O)[C@@H]1CCCN1C(=O)[C@H](Cc1c[nH]cn1)NC(=O)[C@@H]1Cc2ccccc2C(=O)N1 [N^α -[(3 S)-1-oxo-1,2,3,4-tetrahydroisoquinoline-3-carbonyl]-L-histidyl-L-prolinamide] | 1 | 10 | 10 | 10 | 10
2 | NC(=O)[C@@H]1CCCN1C(=O)[C@H](Cc1c[nH]cn1)NC(=O)[C@@H]1CCC(=O)N1 [TRH, L-pyroglutamyl-L-histidyl-L-prolinamide] | 1 | 1 | 1 | 1 | 1
